According to US20200405752A1, “ANTITUMOR AGENT, ANTITUMOR EFFECT ENHANCER, AND ANTITUMOR KIT” (FUJIFILM Corporation, priority 2018, published 2020):

Tested on: human ovarian cancer cell line SK-OV-3
Experiment: Cell viability (CellTiter Glo) of SK-OV-3 in combination with cisplatin or carboplatin
Type: cell-based
Conditions: for viability at 0.001 µM / viability at 0.003 µM / viability at 0.01 µM / viability at 0.03 µM / viability at 0.1 µM / viability at 0.3 µM / viability at 1 µM / viability at 3 µM / viability at 10 µM / IC50: Homo sapiens; for viability at 0.001 µM / viability at 0.003 µM / viability at 0.01 µM / viability at 0.03 µM / viability at 0.1 µM / viability at 0.3 µM / viability at 1 µM / viability at 3 µM / viability at 10 µM: SK-OV-3, 72 h, 3 days; for viability at 0.001 µM: test substance 1 nM; for viability at 0.003 µM: test substance 3 nM; for viability at 0.01 µM: test substance 10 nM; for viability at 0.03 µM: test substance 30 nM; for viability at 0.1 µM: test substance 100 nM; for viability at 0.3 µM: test substance 300 nM; for viability at 1 µM: test substance 1000 nM; for viability at 3 µM: test substance 3000 nM; for viability at 10 µM: test substance 10000 nM; for IC50: SK-OV-3, SK-OV-3; for CI: SK-OV-3 Cell
Description: On the combinational effect of the embodiment of the invention, the results of evaluation using a combination index (CI) which is a quantitative index of the combinational effect are shown. The CI can be calculated by the following equation according to Cancer Research, 2010, Vol. 70, pp. 440 to 446.
That is, in a case where the drugs to be used in combination are drug 1 and drug 2, the CI at a certain drug concentration is
CI={(cell viability in case of using drug 1 and drug 2 in combination)/100}/{[(cell viability in case of using drug 1)/100]×[(cell viability in case of using drug 2)/100]}
Evaluation of antitumor activity against human ovarian cancer cell lines ES-2 and SK-OV-3 in combination with cisplatin and carboplatin
Furthermore, the antitumor activity against human ovarian cancer-derived cell lines ES-2 and SK-OV-3 in combination with cisplatin and carboplatin was evaluated in the same manner as in Test Example 1.
Gemcitabine, cisplatin, carboplatin, and methanesulfonate of Compound A were used as test substances.
Gemcitabine hydrochloride (manufactured by Plantex Co., Ltd.) dissolved in DMSO was used as gemcitabine. Cisplatin (Cat. #039-20091, manufactured by Wako Pure Chemical Industries, Ltd.) and carboplatin (Cat. #C2043, manufactured by Tokyo Chemical Industry Co., Ltd.), each of which dissolved in McCoy's 5a medium (Cat. #16600-082, manufactured by Thermo Fisher Scientific Inc.) supplemented with 1% serum (Cat. #10437-028, manufactured by Thermo Fisher Scientific Inc.), were used as cisplatin and carboplatin, respectively.
Human ovarian cancer cell line ES-2 and SK-OV-3 cells were subcultured in 10% serum-supplemented medium. During this test, all cell cultures were carried out in a CO2 incubator (set to 37° C. and 5% CO2, saturated with water vapor). ES-2 cells were diluted with 10% serum-supplemented medium to a cell density of 10000 cells/well/100 μL and SK-OV-3 cells were diluted with 10% serum-supplemented medium to a cell density of 15000 cells/well/100 μL, and then seeded on a 96-well plate. On the next day, the culture supernatant of each well was discarded, followed by washing twice with 150 μL of 1% serum-supplemented medium, and 100 μL of 1% serum-supplemented medium was added thereto, followed by culturing for 3 days.
The methanesulfonate of Compound A and gemcitabine were dissolved in DMSO to prepare 100 mmol/L DMSO solutions thereof. The thus-prepared DMSO solutions were diluted sequentially with DMSO to prepare DMSO solutions having a final treatment concentration of 1000-fold dilution. […] […] Compound A and gemcitabine were used with a maximum concentration of 10 μmol/L at a common ratio of 1/3 and 9 concentrations in combination with cisplatin or Carboplatin.
20 μL of Compound A or gemcitabine diluted with the cisplatin solution (60 μmol/L) or the Carboplatin solution (600 μmol/L) was added to each well. In addition, a group in which only a solvent containing no drug was added to wells in which cells were seeded (positive control), and a group in which only a solvent containing no drug was added to wells containing only a medium (negative control) were provided. All groups were set to n=3 well.
The cells were cultured for 3 days after the addition of the drug, and the cell viability was evaluated using a CellTiter Glo (registered trademark) Reagent (Cat. #G7570, manufactured by Promega Corporation) with the intracellular ATP level as an index. The concentration that inhibits cell viability by 50% (IC50 value) was calculated using XLFit software Ver.3 (registered trademark, manufactured by CTC Laboratory Systems Corporation).
The cell viability of each well was determined with the luminescence signal level of the negative control being 0% cell viability and the luminescence signal level of the positive control being 100% cell viability. The average value and standard deviation of the cell viability of each treatment group were calculated to prepare Tables 3 to 6.

[1] = SK-OV-3, with carboplatin 30 μmol/L
[2] = SK-OV-3, with cisplatin 10 μmol/L
[3] = used in combination with cisplatin (10 μmol/L, Table 4)

| SMILES | viability at 0.001 µM [1] | viability at 0.003 µM [1] | viability at 0.01 µM [1] | viability at 0.03 µM [1] | viability at 0.1 µM [1] | viability at 0.3 µM [1] | viability at 1 µM [1] | viability at 3 µM [1] | viability at 10 µM [1] | viability at 0.001 µM [2] | viability at 0.003 µM [2] | viability at 0.01 µM [2] | viability at 0.03 µM [2] | viability at 0.1 µM [2] | viability at 0.3 µM [2] | viability at 1 µM [2] | viability at 3 µM [2] | viability at 10 µM [2] | IC50 [3] | CI (combination with Carboplatin) | other results |
| --- | --- | --- | --- | --- | --- | --- | --- | --- | --- | --- | --- | --- | --- | --- | --- | --- | --- | --- | --- | --- | --- |
| Nc1ccn([C@@H]2S[C@H](CO)[C@@H](O)[C@@H]2F)c(=O)n1 [Compound A, 1-(2-deoxy-2-fluoro-4-thio-β-D-arabinofuranosyl)cytosine] | 90% | 88% | 84% | 82% | 80% | 73% | 41% | 20% | 17% | 83% | 82% | 81% | 76% | 43% | 14% | 11% | 10% | 10% | 82.2 nM | 0.3 | IC50 (used in combination with carboplatin (30 μmol/L, Table 5)): 676 nM; CI (combination with Cisplatin): 0.2 |
| Nc1ccn([C@@H]2O[C@H](CO)[C@@H](O)C2(F)F)c(=O)n1 [Gemcitabine] | 90% | 90% | 88% | 86% | 83% | 82% | 81% | 80% | 76% | 82% | 84% | 84% | 83% | 83% | 83% | 79% | 59% | 30% | 3800 nM | 1.0 | IC50 value (SK-OV-3, used in combination with carboplatin (30 μmol/L, Table 5)): could not be calculated; CI (combination with Cisplatin): 1.1 |
